This note sets out measurements from US10723741B1, “DNA polymerase IIIC inhibitors and use thereof” (Acurx Pharmaceuticals, LLC, priority 2018, dated 2020).

≈ marks a conversion by molar mass, not a printed value. Like-named read-outs stand apart in the source and are kept apart here.

Type in all cases: cell-based
The test system of test [1] is Enterococcus faecium ATCC 700221 (VRE). Put plainly: Broth microdilution MIC, E. faecium ATCC 700221 (VRE). Particulars: Enterococcus faecium, broth microdilution, 37° C., 20 hours. The source says:
(§1) Bacteria tested are Staphylococcus aureus NRS384 (a methicillin-resistant Staphylococcus aureus, MRSA), Staphylococcus aureus ATCC 29213 (a methicillin-sensitive Staphylococcus aureus, MSSA), Streptococcus pneumoniae ATCC 49619, Enterococcus faecalis ATCC 29212, Enterococcus faecium ATCC 700221 (a vancomycin-resistant enterococcus, VRE), Bacillus subtilis ATCC 6633, and Escherichia coli ATCC 25922.
(§2) Staphylococcus aureus NRS384 was obtained from NARSA (Network on Antimicrobial Resistance in Staphylococcus aureus, now the strain collection is in BEI resources). Other bacterial isolates were from ATCC (The American Type Culture Collection). Upon receiving the bacteria samples from aforementioned institutes, the bacteria were cultured according to the manuals provided by the suppliers. The bacteria were stored in 25% glycerol (final concentration) at −80° C.
(§3) On the day of testing, the compounds were dissolved in pure DMSO (Sigma 276855-1L) to […] as stock. In a v-bottom 96-well plate (Axygen-wipp02280), 20 μl DMSO was added into well 2 to well 12 by manual pipetting. Into well 1, 12.8 μL of compound DMSO stock (20 mg/ml) was added and mixed with 27.2 μl DMSO by pipetting. Two fold serial dilutions were performed by transferring and mixing 20 μl of solution from well 1 to well 2, then well 2 to well 3 and so forth until well 11. The well 12 was loaded with 20 μl DMSO without compounds. This was drug ‘mother plate’. From well 1 to well 12, the drug concentrations in the mother plate were […] in DMSO. A multi-pipette was used to perform the serial dilutions. The concentration may be adjusted according to the potency of the compounds. An Echo® Acoustic liquid handling system may be used to replace manual pipetting to make the daughter plates.
(§4) One day prior to the day of MIC testing, bacterial strains were streaked out from −80° C. glycerol stocks onto MHA plates and incubated at 37° C. for 20 hours. Streptococcus pneumoniae was streaked on blood agar and incubated at 37° C. in 5% CO2. The single colonies were picked by using an inoculation loop (Greiner-731175) and suspended into 5 ml sterile saline. The turbidity of the suspension was adjusted to 0.10 (Siemens MicroScan turbidity meter), equal to ˜1.0×10^8 cfu/ml. The bacterial suspension was diluted 200× in corresponding test medium (Table 1). This was used to inoculate daughter plates.
(§5) For preparing u-bottom 96-well ‘daughter plates’ (Costar 3788), an aliquot of 1 μl solution from mother plate was then replicating transferred into the daughter plate using a multi-pipette.
(§6) An aliquot of 99 μl of the bacterial suspension was inoculated into each well of the daughter plates using a multi-pipette. Each well contained ˜5.0×10^5 cfu/ml bacteria, 1% DMSO and serially diluted compounds at 64, 32, 16, 8, 4, 2, 1, 0.5, 0.25, 0.125, 0.0625 and 0 μg/ml from well 1 to well 12 respectively, in 100 μl corresponding test medium.
(§7) The plates were incubated in ambient atmosphere and in a 37° C. incubator for 20 hours.
(§8) Compounds of the present invention were tested for antibacterial activity against a variety of bacterial organism including Bacillus subtilis, Staphylococcus aureus, Enterococcus faecalis, Enterococcus faecium, Streptococcus pneumoniae and Escherichia coli. […] Compounds described in Examples 2, 44, 53, 56, 90, 134, 212, 213, 214, 218, 222, 304, 305, and 307 had MIC of ≤1 μg/ml against S. aureus NRS 384 (MRSA) (μg/ml) and E. faecium ATCC 700221 (VRE) (μg/ml).
For orientation: Broth dilution looks for growth in wells or tubes with falling amounts of substance.

In test [2] the test system is Staphylococcus aureus NRS384 (MRSA). Put plainly: Broth microdilution MIC, S. aureus NRS384 (MRSA). Particulars: Staphylococcus aureus, broth microdilution, 37° C., 20 hours.
Excerpt: as §1, §2, §3, §4, §5, §6, §7, §8

Test [3] concerns Enterococcus faecalis ATCC 29212. Put plainly: Broth microdilution MIC, E. faecalis ATCC 29212. The note with it: ATCC29212, broth microdilution, 37° C., 20 hours, read-out: MIC E. faecalis ATCC 29212.
Excerpt: as §1, §2, §3, §4, §5, §6, §7, §8

Test [4] has as its system Bacillus subtilis ATCC 6633. Description: Broth microdilution MIC, B. subtilis ATCC 6633. The note with it: ATCC6633, broth microdilution, 37° C., 20 hours, read-out: MIC B. subtilis ATCC 6633.
Excerpt: as §1, §2, §3, §4, §5, §6, §7, §8

The subject of test [5] is Staphylococcus aureus ATCC 29213 (MSSA). Description: Broth microdilution MIC, S. aureus ATCC 29213 (MSSA). The note with it: broth microdilution, 37° C., 20 hours, read-out: MIC S. aureus ATCC 29213 (MSSA).
Excerpt: as §1, §2, §3, §4, §5, §6, §7, §8

For test [6], the system named is Streptococcus pneumoniae ATCC 49619. Put plainly: Broth microdilution MIC, S. pneumoniae ATCC 49619. The note with it: ATCC49619, broth microdilution, 37° C., 20 hours, read-out: MIC S. pneumoniae ATCC 49619.
Excerpt: as §1, §2, §3, §4, §5, §6, §7, §8

In test [7] the test system is Escherichia coli ATCC 25922. Description: Broth microdilution MIC, E. coli ATCC 25922 (MHIIB w & w/o 4 mM EDTA). The note with it: broth microdilution, 37° C., 20 hours; for MIC: Escherichia coli, ATCC25922, without EDTA, read-out: MIC E. coli ATCC 25922; for MIC E. coli ATCC 25922 + 4 mM EDTA: with 4 mM EDTA.
Excerpt: as §1, §2, §3, §4, §5, §6, §7, §8

Setting [8] is: read-out: MIC E. faecium ATCC 700221 (VRE).

As for `O=C(NCCn1ncc2nc(NCc3ccc(Cl)c(Cl)c3)[nH]c(=O)c21)c1cnoc1` [Compound 86, N-(2-(5-((3,4-dichlorobenzyl)amino)-7-oxo-6,7-dihydro-1H-pyrazolo[4,3-d]pyrimidin-1-yl)ethyl)isoxazole-4-carboxamide], the MIC in test [1] (setting [8]), in test [2] (read-out: MIC NRS 384 (MRSA)), in test [3], in test [4], in test [5] and in test [6] was > 64 µg/mL each time. In addition, the MIC (as a rule, the least concentration at which growth counts as inhibited) in test [7] was > 64 µg/mL. The “MIC E. coli ATCC 25922 + 4 mM EDTA” value in test [7] was >64 µg/mL.

Turning to `CN(C)CC1CN(CCn2ncc3nc(NCc4ccc(Cl)c(Cl)c4)[nH]c(=O)c32)CCO1.Cl.Cl` (stereo not drawn) [Compound 73, 5-((3,4-Dichlorobenzyl)amino)-1-(2-(2-((dimethylamino)methyl)morpholino)ethyl)-1H-pyrazolo[4,3-d]pyrimidin-7(6H)-one dihydrochloride], the MIC in test [1] (setting [8]) worked out at 8 µg/mL; in test [2] (read-out: MIC NRS 384 (MRSA)), 16 µg/mL; in test [3], 16 µg/mL; in test [4], 4 µg/mL; in test [5], 16 µg/mL; in test [6] it was 8 µg/mL. In test [7], the MIC was > 64 µg/mL. Further, the “MIC E. coli ATCC 25922 + 4 mM EDTA” value in test [7] is >64 µg/mL.

For `Cl.O=C(c1ccncc1)N1CCC(n2ncc3nc(NCc4ccc(Cl)c(Cl)c4)[nH]c(=O)c32)CC1` [Compound 252, 5-((3,4-dichlorobenzyl)amino)-1-(1-isonicotinoylpiperidin-4-yl)-1H-pyrazolo[4,3-d]pyrimidin-7(6H)-one hydrochloride], the MIC in test [1] (setting [8]) was 2 µg/mL; in test [2] (read-out: MIC NRS 384 (MRSA)) it was 4 µg/mL; in test [3], 4 µg/mL; in test [4], 1 µg/mL; in test [5], 4 µg/mL; in test [6] it was 2 µg/mL. Further, the MIC in test [7] is > 64 µg/mL. The “MIC E. coli ATCC 25922 + 4 mM EDTA” value in test [7] is >64 µg/mL.

On to `Cn1ncc2nc(NCc3cncs3)[nH]c(=O)c21` [Compound 20, 1-Methyl-5-((thiazol-5-ylmethyl)amino)-1H-pyrazolo[4,3-d]pyrimidin-7(6H)-one], for which the MIC in test [1] (setting [8]), in test [2] (read-out: MIC NRS 384 (MRSA)), in test [3], in test [4], in test [5] and in test [6] was > 64 µg/mL in each case. Also, the MIC in test [7] is > 64 µg/mL. Further, in test [7], the “MIC E. coli ATCC 25922 + 4 mM EDTA” value was >64 µg/mL.

For `O=c1[nH]c(NCc2ccc(Cl)c(Cl)c2)nc2cnn(CC3CCC3)c12` [Compound 134, 1-(Cyclobutylmethyl)-5-((3,4-dichlorobenzyl)amino)-1H-pyrazolo[4,3-d]pyrimidin-7(6H)-one], the MIC in test [1] (setting [8]) is 1 µg/mL (≈ 2.64 µM); in test [1] (MHIIB, read-out: MIC against E. faecium ATCC 700221 (VRE)), ≤ 1 µg/mL; in test [2] (read-out: MIC NRS 384 (MRSA)) it was 1 µg/mL (≈ 2.64 µM); in test [2] (MHIIB, read-out: MIC against S. aureus NRS 384 (MRSA)), ≤ 1 µg/mL; in test [3], > 64 µg/mL; in test [4], 0.5 µg/mL (≈ 1.32 µM). Also, the figures for the MIC in test [5], in test [6] and in test [7] were 1 µg/mL (≈ 2.64 µM), 8 µg/mL (≈ 21.1 µM) and > 64 µg/mL, respectively. Moreover, the “MIC E. coli ATCC 25922 + 4 mM EDTA” value in test [7] is >64 µg/mL.

With `Cn1ncc2nc(NCc3cc(Cl)c(Cl)cn3)[nH]c(=O)c21.O=C(O)C(F)(F)F` [Compound 36, 5-(((4,5-Dichloropyridin-2-yl)methyl)amino)-1-methyl-1H-pyrazolo[4,3-d]pyrimidin-7(6H)-one-2,2,2-trifluoroacetate], the MIC in test [1] (setting [8]), in test [2] (read-out: MIC NRS 384 (MRSA)), in test [3], in test [4], in test [5] and in test [6] was > 64 µg/mL throughout. For the same compound, in test [7], the MIC is > 64 µg/mL. Further, the “MIC E. coli ATCC 25922 + 4 mM EDTA” value in test [7] was >64 µg/mL.

On to `COC(=O)C(C)n1cc2nc(NCc3ccc(Cl)c(Cl)c3)[nH]c(=O)c2n1` (stereo not drawn) [Compound 224, Methyl 2-(5-((3,4-dichlorobenzyl)amino)-7-oxo-6,7-dihydro-2H-pyrazolo[4,3-d]pyrimidin-2-yl)propanoate], for which the MIC in test [1] (setting [8]) was > 64 µg/mL; in test [2] (read-out: MIC NRS 384 (MRSA)), > 64 µg/mL; in test [3] it was > 64 µg/mL; in test [4], > 64 µg/mL; in test [5] it was > 64 µg/mL; in test [6] it was 32 µg/mL (≈ 80.8 µM). In addition, the MIC in test [7] is > 64 µg/mL. For the same compound, the “MIC E. coli ATCC 25922 + 4 mM EDTA” value in test [7] is >64 µg/mL.

Turning to `CC(C)(C)OC(=O)N1CCC(n2ncc3nc(NCc4ccc(Cl)c(Cl)c4)[nH]c(=O)c32)CC1` [Compound 153, Tert-butyl 4-(5-((3,4-dichlorobenzyl)amino)-7-oxo-6,7-dihydro-1H-pyrazolo[4,3-d]pyrimidin-1-yl)piperidine-1-carboxylate], the MIC in test [1] (setting [8]) worked out at 2 µg/mL (≈ 4.05 µM); in test [2] (read-out: MIC NRS 384 (MRSA)) it was 4 µg/mL (≈ 8.11 µM); in test [3] it was 4 µg/mL (≈ 8.11 µM); in test [4] it was 2 µg/mL (≈ 4.05 µM); in test [5], 8 µg/mL (≈ 16.2 µM); in test [6], 16 µg/mL (≈ 32.4 µM). The MIC in test [7] is > 64 µg/mL.

Take `Cl.O=C(c1ccncc1)N1CCC(n2nc(F)c3nc(NCc4ccc(F)c(F)c4)[nH]c(=O)c32)CC1` [Compound 319, 5-((3,4-difluorobenzyl)amino)-3-fluoro-1-(1-isonicotinoylpiperidin-4-yl)-1H-pyrazolo[4,3-d]pyrimidin-7(6H)-one hydrochloride]: the MIC stood at 4 µg/mL in test [1] (setting [8]); 8 µg/mL in test [2] (S. aureus NRS 384, read-out: MIC NRS 384 (MRSA)); 8 µg/mL in test [3]; 2 µg/mL in test [4]; 8 µg/mL in test [5]; 4 µg/mL in test [6]. The MIC in test [7] was > 64 µg/mL. Further, the “MIC E. coli ATCC 25922 + 4 mM EDTA” value in test [7] was >64 µg/mL.

`Cl.Cl.O=c1[nH]c(NCc2ccc(Cl)c(Cl)c2)nc2cnn(C3CCN(Cc4ccccn4)CC3)c12` [Compound 244, 5-((3,4-Dichlorobenzyl)amino)-1-(1-(pyridin-2-ylmethyl)piperidin-4-yl)-1H-pyrazolo[4,3-d]pyrimidin-7(6H)-one dihydrochloride]: the MIC in test [1] (setting [8]) is 2 µg/mL; in test [2] (read-out: MIC NRS 384 (MRSA)) it was 2 µg/mL; in test [3], 4 µg/mL; in test [4], 1 µg/mL; in test [5] it was 2 µg/mL; in test [6] it was 4 µg/mL. Moreover, in test [7], the MIC is > 64 µg/mL. Further, the “MIC E. coli ATCC 25922 + 4 mM EDTA” value in test [7] turned out to be 16 µg/mL.
